Assay results reported in patent US20230131966A1, “FUNGICIDAL AMIDES” (FMC Corporation, priority 2020, published 2023).

How the values were obtained:
Type in all cases: in vivo
[1] = system: Botrytis cinerea; assay: Test E: tomato Botrytis control on tomato seedlings; details: for Test E disease control rating: 250 ppm, 100 = 100% disease control, 0 = no control; for Test E disease control rating (100 = 100% disease control, 0 = no disease control): rate 250 ppm, relative to the controls
[2] = system: Zymoseptoria tritici; assay: Test C: wheat leaf blotch control on wheat seedlings; details: for Test C disease control rating: 250 ppm, wheat seedlings, 100 = 100% disease control, 0 = no control; for Test C disease control rating (100 = 100% disease control, 0 = no disease control): rate 250 ppm, relative to the controls
[3] = system: Erysiphe graminis f. sp. tritici; assay: Test G: wheat powdery mildew control on wheat seedlings; details: for Test G disease control rating: 250 ppm, 100 = 100% disease control, 0 = no control; for Test G disease control rating (100 = 100% disease control, 0 = no disease control): rate 250 ppm, relative to the controls
[4] = system: Phakopsora pachyrhizi; assay: Test A: Asian soybean rust control on soybean seedlings; details: for Test A disease control rating: 250 ppm, soybean seedlings, 100 = 100% disease control, 0 = no control; for Test A disease control rating (100 = 100% disease control, 0 = no disease control): rate 250 ppm, relative to the controls
[5] = system: Puccinia recondita f. sp. tritici; assay: Test B: wheat leaf rust control on wheat seedlings; details: for Test B disease control rating: 250 ppm, wheat seedlings, 100 = 100% disease control, 0 = no control; for Test B disease control rating (100 = 100% disease control, 0 = no disease control): rate 250 ppm, relative to the controls
[6] = system: Plasmopara viticola; assay: Test D: grape downy mildew control on grape seedlings; details: for Test D disease control rating: 250 ppm, 100 = 100% disease control, 0 = no control; for Test D disease control rating (100 = 100% disease control, 0 = no disease control): rate 250 ppm, relative to the controls
[7] = system: Phytophthora infestans; assay: whole plant or invertebrate; details: tomato seedlings; for Test F disease control rating: 250 ppm, 100 = 100% disease control, 0 = no control; for Test F disease control rating (100 = 100% disease control, 0 = no disease control): rate 250 ppm, relative to the controls

Row | SMILES | Test E disease control rating [1] [%] | Test C disease control rating [2] [%] | Test G disease control rating [3] [%] | Test A disease control rating [4] [%] | Test B disease control rating [5] [%] | Test D disease control rating [6] [%] | Test F disease control rating [7] [%] | Test E disease control rating (100 = 100% disease control, 0 = no disease control) [1] [%] | Test C disease control rating (100 = 100% disease control, 0 = no disease control) [2] [%] | Test G disease control rating (100 = 100% disease control, 0 = no disease control) [3] [%] | Test A disease control rating (100 = 100% disease control, 0 = no disease control) [4] [%] | Test B disease control rating (100 = 100% disease control, 0 = no disease control) [5] [%] | Test D disease control rating (100 = 100% disease control, 0 = no disease control) [6] [%] | Test F disease control rating (100 = 100% disease control, 0 = no disease control) [7] [%]
1 | COc1ccnc(C(=O)N[C@@H](C)C(=O)OC(C)c2ccc(C3CCCCC3)cc2)c1OCOC(C)=O (single isomer, unassigned) [Compound 146] | 0 | 91 | 60 | 73 | 91 | 31 | 0 |  |  |  |  |  |  | 
2 | COc1ccnc(C(=O)N[C@@H](C)C(=O)OC(C)c2ccc(C3CCCCC3)cc2)c1OCOC(C)=O (single isomer, unassigned) [Compound 147] | 0 | 95 | 94 | 100 | 99 | 38 | 71 |  |  |  |  |  |  | 
3 | CCC(OC(=O)[C@H](C)NC(=O)c1nccc(OC)c1O)C1CCCCC1 (single isomer, unassigned) [Compound 167] | 0 | 90 | 0 | 100 | 100 | 41 | 0 |  |  |  |  |  |  | 
4 | CCC(OC(=O)[C@H](C)NC(=O)c1nccc(OC)c1OC(C)=O)C1CCCCC1 (single isomer, unassigned) [Compound 168] | 0 | 99 | 0 | 100 | 100 | 31 | 0 |  |  |  |  |  |  | 
5 | CCC(OC(=O)[C@H](C)NC(=O)c1nccc(OC)c1OC(C)=O)C1CCCCC1 (single isomer, unassigned) [Compound 169] | 0 | 83 | 35 | 100 | 41 | 17 | 0 |  |  |  |  |  |  | 
6 | CCC(OC(=O)[C@H](C)NC(=O)c1nccc(OC)c1OCOC(=O)C(C)C)C1CCCCC1 (single isomer, unassigned) [Compound 170] | 0 | 100 | 0 | 100 | 100 | 32 | 0 |  |  |  |  |  |  | 
7 | CCC(OC(=O)[C@H](C)NC(=O)c1nccc(OC)c1O)C1CCCCC1 (single isomer, unassigned) [Compound 182] | 0 | 45 | 0 | 100 | 0 | 15 | 0 |  |  |  |  |  |  | 
8 | COc1ccnc(C(=O)N[C@@H](C)C(=O)OC(C)C2CCCc3ccccc32)c1O (single isomer, unassigned) [Compound 183] | 0 | 98 | 0 | 100 | 99 | 44 | 0 |  |  |  |  |  |  | 
9 | COc1ccnc(C(=O)N[C@@H](C)C(=O)OC(C)C2CCCc3ccccc32)c1O (single isomer, unassigned) [Compound 184] | 0 | 100 | 0 | 100 | 99 | 64 | 0 |  |  |  |  |  |  | 
10 | CCC(OC(=O)[C@H](C)NC(=O)c1nccc(OC)c1OCOC(=O)C(C)C)C1CCCCC1 (single isomer, unassigned) [Compound 188] |  |  |  |  |  |  |  | 0 | 27 | 0 | 100 | 68 | 43 | 0
11 | CCC(OC(=O)[C@H](C)NC(=O)c1nccc(OC)c1OCOC(C)=O)C1CCCCC1 (single isomer, unassigned) [Compound 189] |  |  |  |  |  |  |  | 0 | 98 | 26 | 100 | 100 | 46 | 0
